From US12630600B2 (MEDIMMUNE LIMITED, priority 2022, dated 2026)
Starred links: 1 amine or outer side, 2 acyl side, 3 side chain; linkers in the order of their positions; H or OH if unused. Non-standard residues stand in square brackets, D forms with d. Residues, ends and D or L forms follow the SMILES beside them. Groups on a side chain read outwards from the residue. *: point of attachment. C20 diacid = O=C(O)CCCCCCCCCCCCCCCCCCC(=O)*; C18 diacid = O=C(O)CCCCCCCCCCCCCCCCC(=O)*; γGlu = O=C(O)[C@H](CCC(=O)[*:2])N[*:1]; αMeF = C[C@](N)(Cc1ccccc1)C(=O)O; AEEA = NCCOCCOCC(=O)O; Aib = CC(C)(N)C(=O)O

target: T1, neprilysin (Homo sapiens, UniProt P08473); experiment: Proteolytic resistance to neprilysin; type: in vitro ADME; conditions: pH 8.3
T1 construct: purchased R&D Systems 1182-ZNC-010
Procedure: 10.0 μg (˜10 units) recombinant Neprilysin (R&D Systems: 1182-ZNC-010) was reconstituted to 100 μL (100 μg/mL, ˜100 units/mL) in assay buffer (50 mM Tris, 50 mM NaCl, 50 mM NaHCO3, adjusted to pH 8.3) to give the enzyme stock solution. Peptide stock solutions were prepared to a concentration of ˜250 μM (˜1.0 mg/mL of 4 kDa peptide) in assay buffer. 100 μL (10 μg, ˜10 units) of neprilysin stock solution was added to 100 μL of peptide stock solution (1.0 mg/mL, ˜100 μg of peptide) and the mixture was co-incubated in a temperature regulated incubator at 37° C. for the duration of the experiment. 25 μL aliquots (˜12.5 μg initial peptide) of the peptide-enzyme mixture were periodically withdrawn (t=0, 30 mins, 1 h, 2 h, 4 h and 24 h) and quenched immediately by addition to an equal volume ([…]) of 10% TFA (v/v) in 1:1 water/acetonitrile to arrest proteolytic activity. The quenched aliquot centrifuged at 7800 rpm, and 30 μL of the supernatant was analyzed by analytical RP-HPLC as follows: Analytical RP-HPLC method: Agilent Polaris C8-A column (4.6×100 mm, 3 micron) eluted with a linear binary gradient of 10-90% MeCN (0.1% TFA v/v) in water (0.1% TFA v/v) over either 10 or 15 mins at 1.5 mL min^−1 at 40° C. with detection by UV absorption at 210 nm. Manual integration (AUC) allowed estimation of remaining intact peptide over the time course of the experiment.

T1 sequence (P08473 whole entry): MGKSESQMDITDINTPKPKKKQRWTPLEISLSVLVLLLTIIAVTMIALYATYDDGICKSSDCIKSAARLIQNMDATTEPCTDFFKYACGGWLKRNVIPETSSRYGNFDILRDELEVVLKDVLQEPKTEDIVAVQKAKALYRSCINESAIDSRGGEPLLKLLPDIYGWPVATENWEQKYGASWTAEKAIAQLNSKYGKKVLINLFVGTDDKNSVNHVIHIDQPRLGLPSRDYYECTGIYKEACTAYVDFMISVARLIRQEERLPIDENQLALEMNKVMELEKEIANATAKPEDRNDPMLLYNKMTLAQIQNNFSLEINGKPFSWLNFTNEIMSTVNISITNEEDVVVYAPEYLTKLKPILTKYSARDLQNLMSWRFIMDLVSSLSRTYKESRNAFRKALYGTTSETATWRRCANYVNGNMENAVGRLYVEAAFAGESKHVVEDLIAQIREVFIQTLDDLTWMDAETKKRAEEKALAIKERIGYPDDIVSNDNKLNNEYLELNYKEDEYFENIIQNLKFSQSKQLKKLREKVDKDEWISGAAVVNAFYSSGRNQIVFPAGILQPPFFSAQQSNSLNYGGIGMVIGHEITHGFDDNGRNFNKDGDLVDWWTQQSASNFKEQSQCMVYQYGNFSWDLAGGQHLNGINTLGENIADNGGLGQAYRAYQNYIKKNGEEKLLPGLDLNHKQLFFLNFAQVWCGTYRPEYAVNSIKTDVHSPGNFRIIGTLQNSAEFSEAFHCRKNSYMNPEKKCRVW

% intact peptide over time, Neprilysin, 100%:
CC[C@H](C)[C@H](NC(=O)C(C)(C)NC(=O)[C@H](CCC(=O)O)NC(=O)[C@@H](NC(=O)[C@](C)(Cc1ccccc1)NC(=O)[C@H](CC(=O)O)NC(=O)[C@H](CCCNC(=N)N)NC(=O)[C@H](C)NC(=O)[C@H](C)NC(=O)[C@H](CCCCNC(=O)COCCOCCNC(=O)COCCOCCNC(=O)CC[C@H](NC(=O)CCCCCCCCCCCCCCCCC(=O)O)C(=O)O)NC(=O)[C@H](CO)NC(=O)[C@H](CC(=O)O)NC(=O)[C@H](CC(C)C)NC(=O)[C@](C)(Cc1ccccc1)NC(=O)[C@H](CCCCN)NC(=O)[C@H](CO)NC(=O)[C@@H](NC(=O)[C@H](CC(=O)O)NC(=O)[C@H](CO)NC(=O)[C@@H](NC(=O)[C@](C)(Cc1ccccc1)NC(=O)[C@H](CO)NC(=O)CNC(=O)[C@H](Cc1c[nH]cn1)NC(=O)C(C)(C)NC(=O)[C@@H](N)Cc1c[nH]cn1)[C@@H](C)O)C(C)C)C(C)C)C(=O)N[C@@H](C)C(=O)N[C@@H](CC(N)=O)C(=O)N[C@H](C(N)=O)[C@@H](C)O [Peptide 15] (H-H[Aib]HGS[αMeF]TSDVSK[αMeF]LDSK([AEEA-AEEA-γGlu-C18 diacid])AARD[αMeF]VE[Aib]IANT-NH2; N-terminus assumed)
CC[C@H](C)[C@H](NC(=O)C(C)(C)NC(=O)[C@H](CCC(N)=O)NC(=O)[C@@H](NC(=O)[C@](C)(Cc1ccccc1)NC(=O)[C@H](CC(=O)O)NC(=O)[C@H](CCCCNC(=O)COCCOCCNC(=O)COCCOCCNC(=O)CC[C@H](NC(=O)CC[C@H](NC(=O)CCCCCCCCCCCCCCCCCCC(=O)O)C(=O)O)C(=O)O)NC(=O)[C@H](C)NC(=O)[C@H](C)NC(=O)[C@H](CCCNC(=N)N)NC(=O)[C@H](CO)NC(=O)[C@H](CC(=O)O)NC(=O)[C@H](CC(C)C)NC(=O)[C@](C)(Cc1ccccc1)NC(=O)[C@H](CCCCN)NC(=O)[C@H](CO)NC(=O)[C@@H](NC(=O)[C@H](CC(=O)O)NC(=O)[C@H](CO)NC(=O)[C@@H](NC(=O)[C@H](Cc1ccccc1)NC(=O)[C@H](CO)NC(=O)CNC(=O)[C@H](Cc1c[nH]cn1)NC(=O)C(C)(C)NC(=O)[C@@H](N)Cc1c[nH]cn1)[C@@H](C)O)C(C)C)C(C)C)C(=O)N[C@@H](C)C(=O)N[C@@H](CC(N)=O)C(=O)N[C@H](C(N)=O)[C@@H](C)O [Peptide 282] (H-H[Aib]HGSFTSDVSK[αMeF]LDSRAAK([AEEA-AEEA-γGlu-γGlu-C20 diacid])D[αMeF]VQ[Aib]IANT-NH2)
CC[C@H](C)[C@H](NC(=O)C(C)(C)NC(=O)[C@H](CCC(N)=O)NC(=O)[C@@H](NC(=O)[C@H](Cc1ccccc1)NC(=O)[C@H](CC(=O)O)NC(=O)[C@H](CCCCNC(=O)COCCOCCNC(=O)COCCOCCNC(=O)CC[C@H](NC(=O)CCCCCCCCCCCCCCCCC(=O)O)C(=O)O)NC(=O)[C@H](C)NC(=O)[C@H](C)NC(=O)[C@H](CCCNC(=N)N)NC(=O)[C@H](CO)NC(=O)[C@H](CC(=O)O)NC(=O)[C@H](CC(C)C)NC(=O)[C@](C)(Cc1ccccc1)NC(=O)[C@H](CCCCN)NC(=O)[C@H](CO)NC(=O)[C@@H](NC(=O)[C@H](CC(=O)O)NC(=O)[C@H](CO)NC(=O)[C@@H](NC(=O)[C@](C)(Cc1ccccc1)NC(=O)[C@H](CO)NC(=O)CNC(=O)[C@H](Cc1c[nH]cn1)NC(=O)C(C)(C)NC(=O)[C@@H](N)Cc1c[nH]cn1)[C@@H](C)O)C(C)C)C(C)C)C(=O)N[C@@H](C)C(=O)N[C@@H](CC(N)=O)C(=O)N[C@H](C(N)=O)[C@@H](C)O [Peptide 287] (H-H[Aib]HGS[αMeF]TSDVSK[αMeF]LDSRAAK([AEEA-AEEA-γGlu-C18 diacid])DFVQ[Aib]IANT-NH2)
